# Assay results as given in US8420696B2, “Use of low-dose ladostigil for neuroprotection” (priority 2005, dated 2013).
# Tests used:
# [1] = system: NT immunoreactivity in astrocytes; assay: Example 2: astrocyte activation and NT immunoreactivity in hippocampus and regions bordering lateral ventricles after icv STZ; type: in vivo, Sprague-Dawley rats; conditions: 1 mg/kg/day orally, one week after icv STZ
# Protocol: Male Sprague-Dawley rats (63) weighing 320-340 g, aged 4 months, were anesthetized by an intraperitoneal injection of Equithesin 0.3 ml/kg. STZ (0.5 mg) dissolved in 2 μl artificial cerebrospinal fluid (CSF) was injected into each lateral ventricle of 45 rats. The stereotaxic co-ordinates for icv injection were: 0.9 mm posterior, 1.8 mm lateral and 3.8 mm ventral from the bregma level. Control rats (18) received a bilateral injection of 2 μl artificial CSF. STZ-injected rats (25) were given ladostigil (1 mg/kg of the hemitartrate salt/day) orally in a volume of (1 ml/kg) from one week before, until 1 or 8 weeks after icv STZ. The remaining 20 rats received 1 ml/kg water. The rats were housed two per cage with free access to food and water until the behavioral, enzymatic and cytochemical measurements were completed. […]
# Nitrotyrosine, (NT) a marker of nitrative/oxidative stress, was stained with rabbit anti-nitrotyrosine from Upstate (Lake Placid, N.Y., USA), diluted 1:100 followed by the secondary donkey anti-rabbit conjugated with horseradish peroxidase from Chemicon (Temecula, Calif., USA), was diluted 1:200. […] Images were obtained by bright field microscopy and quantitative assessments of appropriate markers were made using AnalySIS software. […]
# For each quantitative analysis of NT-immunoreactive astrocytes, 3 sections were sampled from each rat. […]
# [2] = target: T1, butyrylcholinesterase (BuChE) (Rattus norvegicus, UniProt Q9JKC1); assay: Example 2: BuChE activity in cortex and hippocampus after ladostigil treatment; type: in vivo, rats; conditions: chronic 1 mg/kg
# T1 construct: from tissue; host or cells: cortex and hippocampus homogenates of dosed Sprague-Dawley rats
# T1 sequence (Q9JKC1 24-597): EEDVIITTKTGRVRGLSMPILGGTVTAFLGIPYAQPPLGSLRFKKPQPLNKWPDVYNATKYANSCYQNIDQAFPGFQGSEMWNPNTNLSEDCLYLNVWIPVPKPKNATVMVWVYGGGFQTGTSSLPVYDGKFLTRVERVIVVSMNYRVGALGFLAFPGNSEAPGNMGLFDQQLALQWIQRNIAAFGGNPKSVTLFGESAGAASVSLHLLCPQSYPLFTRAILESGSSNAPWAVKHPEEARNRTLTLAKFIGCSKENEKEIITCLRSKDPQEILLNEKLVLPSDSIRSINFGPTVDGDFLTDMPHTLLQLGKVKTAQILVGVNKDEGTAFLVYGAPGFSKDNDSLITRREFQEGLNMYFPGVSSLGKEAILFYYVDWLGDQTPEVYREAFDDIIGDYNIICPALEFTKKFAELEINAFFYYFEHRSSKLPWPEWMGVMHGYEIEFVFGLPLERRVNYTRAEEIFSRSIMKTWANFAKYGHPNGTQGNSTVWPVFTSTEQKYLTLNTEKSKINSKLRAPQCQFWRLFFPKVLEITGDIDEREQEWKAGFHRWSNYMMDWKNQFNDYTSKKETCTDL
# Protocol: The effect of chronic ladostigil treatment on ChE activity in the cortex and hippocampus of rats was determined one week after icv STZ in 12 rats (3 treated with water and 9 with ladostigil). The effect of acute treatment with ladostigil 1 or 17 mg/kg was determined 2 hrs after drug administration. […] The brain was rapidly removed, washed with saline on ice and the cortex, hippocampus and striatum dissected out, quickly weighed and stored at −70° C. until assay. Total ChE activity in the cortex and hippocampus was measured as described in Wang et al., Gender differences in the effect of rivastigmine on brain cholinesterase activity and cognitive function in rats, Neuropharmacology (2000) 39:497-506, using the spectrophotometric method of Ellman et al., A new and rapid colorimetric determination of acetylcholinesterase activity, Biochem. Pharmacol. (1961) 7:88-95 with acetylthiocholine (Sigma Ltd) as a substrate using homogenate of 100 mg tissue in 1 ml phosphate buffer. To determine only butyrylcholinesterase (BuChE) activity the amounts of tissue/ml of buffer were increased 3-fold and butyrylthiocholine (Sigma Ltd) was used as a substrate. MAO A and B activity was measured in homogenates of striatum as described in Weinstock et al., Limited potentiation of blood pressure response to oral tyramine by brain-selective monoamine oxidase A-B inhibitor, TV-3326 in conscious rabbits, Neuropharmacology (2002) 43:999-1005.
# cultured neuronal cells = conditions: low concentrations; cited from earlier work
smiles,measurement,setting,value
"C#CCN[C@@H]1CCc2ccc(OC(=O)N(C)CC)cc21 [ladostigil, R(+)-6-(N-methyl,N-ethyl-carbamoyloxy)-N′-propargyl-1-aminoindan]","Astrocyte activation and NT immunoreactivity in CA1, corpus callosum, medial and lateral septum",[1],reduced both astrocyte activation and NT immunoreactivity in these brain regions to the level of that seen in CSF-injected controls
same,BuChE (%) inhibition,"[2]; Cortex, 60 min",16.2 ± 2.5 %
same,BuChE (%) inhibition,"[2]; Cortex, 120 min",15.7 ± 3.2 %
same,BuChE (%) inhibition,"[2]; Hippocampus, 60 min",7.3 ± 2.5%
same,BuChE (%) inhibition,"[2]; Hippocampus, 120 min",5.4 ± 2.8%
same,Inhibition of BuChE in the hippocampus,[2],no significant inhibition
same,Inhibition of BuChE in the cortex,"[2]; seven days after icv STZ, 1 or 2 hrs after the last dose",16%
same,Cytotoxicity induced by ROS and NO in cultured neuronal cells,cultured neuronal cells,prevent cytotoxicity
